These results are taken from patent publication US7713994B2 (Wyeth LLC, priority 2005, dated 2010).

The IC50 is the concentration needed to halve the response being measured. What is called melting point is the temperature of the solid-liquid transition.

One series deals with T1, cyclin D1/cdk 4 enzyme (Homo sapiens, UniProt P11802).
T1 construct: made in house; host or cells: Sf9 insect cells, recombinant baculovirus
Description: CDK4 ELISA kinase assay (phospho-Rb ser 795 detection). It is filed as biochemical. The conditions noted are these: In Vitro Enzyme Assay, cyclin D1/cdk 4, read-out: CDK4 IC50. An outline of the steps:
(§1)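 Inhibition was derived from A450 relative to control wells lacking compound, following an anti-phospho-Rb Ser795 sandwich of HRP detection. The reactions combined coated GST-Rb fragment, 200 μM ATP and baculovirus-expressed cyclin/CDK enzymes, incubated for 1 h at 30° C.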
For orientation: An ELISA detects its analyte on a solid surface through an enzyme-linked reagent.

Another series concerns the target T2, cyclin E/CDK2 enzyme (Homo sapiens, UniProt P24941).
T2 construct: made in house; host or cells: Sf9 insect cells, recombinant baculovirus
Description: CDK2 ELISA kinase assay (phospho-Rb ser 795 detection). It is filed as biochemical. As to conditions: In Vitro Enzyme Assay, cyclin E/CDK2, read-out: CDK2 IC50. A digest of the protocol:
as §1

The next series has as its target T3, cyclin B/CDK1 enzyme (Homo sapiens, UniProt P06493).
T3 construct: purchased New England BioLabs; host or cells: Sf9 insect cells, recombinant baculovirus
Kind of series: CDK1 ELISA kinase assay (phospho-Rb ser 795 detection). It is filed as biochemical. The conditions noted are these: In Vitro Enzyme Assay, cyclin B/CDK1, read-out: CDK1 IC50. An outline of the steps: as §1

In another series the test system is BT474. Description: Cytotoxicity assay (SRB), BT474. It is filed as cell-based. As to conditions: Homo sapiens, BT-474, 144 h, BT474 cells, 6 days, SRB; read-out: In Vitro Cellular Activity IC50 BT474. A digest of the protocol: (§2)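 BT474 (12000 cells/well) was treated for 6 days, whereas HCT-116 (4000), LoVo (6000) and MCF-7 (6000) were treated for 3 days, all in RPMI 1640 containing 5% FBS. Surviving-cell percentage came from SRB dye binding measured at 540 nm.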

The next series has as its system HCT-116. Kind of series: Cytotoxicity assay (SRB), HCT-116. It is filed as cell-based. As to conditions: Homo sapiens, HCT-116, 72 h, HCT116 cells, 3 days, SRB; read-out: In Vitro Cellular Activity IC50 HCT116. An outline of the steps:
as §2

The test system of another series is LoVo. Kind of series: Cytotoxicity assay (SRB), LoVo. The conditions noted are these: Homo sapiens, LoVo, 72 h, LoVo cells, 3 days, SRB; read-out: In Vitro Cellular Activity IC50 LOVO. It is filed as cell-based. An outline of the steps:
as §2

The next series deals with MCF-7. Description: Cytotoxicity assay (SRB), MCF-7. It is filed as cell-based. The conditions noted are these: Homo sapiens, MCF7, 72 h, MCF-7 cells, 3 days, SRB; read-out: In Vitro Cellular Activity IC50 MCF-7. An outline of the steps:
as §2

T3 sequence (P06493 whole entry): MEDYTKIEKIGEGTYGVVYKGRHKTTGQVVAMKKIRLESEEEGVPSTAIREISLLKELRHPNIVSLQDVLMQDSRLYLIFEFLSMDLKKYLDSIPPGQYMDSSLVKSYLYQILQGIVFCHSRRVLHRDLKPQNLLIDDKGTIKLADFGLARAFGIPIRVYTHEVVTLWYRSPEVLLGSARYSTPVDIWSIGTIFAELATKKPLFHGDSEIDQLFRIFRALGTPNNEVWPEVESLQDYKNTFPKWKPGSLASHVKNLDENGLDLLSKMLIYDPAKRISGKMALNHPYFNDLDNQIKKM
T3 sequence (P14635 whole entry partner): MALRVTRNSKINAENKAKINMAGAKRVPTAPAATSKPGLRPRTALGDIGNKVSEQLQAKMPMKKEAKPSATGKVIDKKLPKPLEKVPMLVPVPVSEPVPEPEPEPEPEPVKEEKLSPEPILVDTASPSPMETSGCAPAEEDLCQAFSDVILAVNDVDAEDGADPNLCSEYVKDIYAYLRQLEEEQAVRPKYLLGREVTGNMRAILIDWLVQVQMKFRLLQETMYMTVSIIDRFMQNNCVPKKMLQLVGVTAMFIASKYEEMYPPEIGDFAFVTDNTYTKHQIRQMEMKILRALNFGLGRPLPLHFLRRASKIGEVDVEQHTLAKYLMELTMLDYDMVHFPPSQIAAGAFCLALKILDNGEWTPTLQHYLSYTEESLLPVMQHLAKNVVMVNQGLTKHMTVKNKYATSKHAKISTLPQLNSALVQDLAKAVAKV
T1 sequence (P11802 whole entry, species assumed): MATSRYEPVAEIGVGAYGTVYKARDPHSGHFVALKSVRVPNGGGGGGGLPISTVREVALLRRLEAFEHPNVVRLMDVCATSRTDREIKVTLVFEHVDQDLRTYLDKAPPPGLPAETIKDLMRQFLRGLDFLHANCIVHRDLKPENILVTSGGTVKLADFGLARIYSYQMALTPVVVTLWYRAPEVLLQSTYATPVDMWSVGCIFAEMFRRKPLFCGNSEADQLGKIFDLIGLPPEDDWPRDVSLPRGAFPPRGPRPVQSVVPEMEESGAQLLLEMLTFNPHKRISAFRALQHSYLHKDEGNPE
T1 sequence (P24385 whole entry partner, species assumed): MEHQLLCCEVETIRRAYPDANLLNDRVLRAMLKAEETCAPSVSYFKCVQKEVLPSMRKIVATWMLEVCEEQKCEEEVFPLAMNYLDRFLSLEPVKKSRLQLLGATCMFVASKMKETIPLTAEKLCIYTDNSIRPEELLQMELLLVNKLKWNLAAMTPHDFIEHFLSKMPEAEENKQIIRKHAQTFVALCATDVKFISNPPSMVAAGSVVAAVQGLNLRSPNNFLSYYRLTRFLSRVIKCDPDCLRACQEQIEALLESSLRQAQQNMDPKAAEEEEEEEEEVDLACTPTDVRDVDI

Consider `CN1CCN(c2ccc(N/C=C3\C(=O)NC(=O)c4ccc(-c5cccn5C)cc43)cn2)CC1` [Example 474, (4Z)-4-({[6-(4-Methylpiperazin-1-yl)pyridin-3-yl]amino}methylene)-6-(1-methyl-1H-pyrrol-2-yl)isoquinoline-1,3(2H,4H)-dione], for which the melting point fell in the range of 216 to 217 °C. The concentration for half-maximal inhibition (IC50) at cyclin D1/cdk 4 enzyme amounted to 4.2 µM. Also, at cyclin E/CDK2 enzyme, the IC50 is more than 50 µM. The IC50 on cyclin B/CDK1 enzyme was more than 50 µM. In addition, in the series on BT474, the IC50 came out at 7.4 µM. For the same compound, the 50% inhibitory concentration (IC50) in the series with HCT-116 is 3.5 µM. In the series with LoVo, the 50% inhibitory concentration (IC50) was found to be 3.8 µM. Besides, the half-inhibitory concentration (IC50) in the series with MCF-7 was 4 µM.

In turn, `CN1CCN(c2ccc(N/C=C3\C(=O)NC(=O)c4ccc(-c5ccoc5)cc43)nn2)CC1` [Example 476, (4Z)-6-(3-Furyl)-4-({[6-(4-methylpiperazin-1-yl)pyridazin-3-yl]amino}methylene)isoquinoline-1,3(2H,4H)-dione] yielded a melting point of 275 to 276 °C. The IC50 on cyclin D1/cdk 4 enzyme was found to be 0.82 µM. In addition, the 50% inhibitory concentration (IC50) at cyclin E/CDK2 enzyme is more than 50 µM. The half-maximal inhibitory concentration (IC50) at cyclin B/CDK1 enzyme was 24.7 µM. Besides, the IC50 in the series on BT474 came to 2.6 µM. Moreover, the IC50 with HCT-116 worked out at 1.9 µM. In addition, the IC50 in the series on LoVo was found to be 3.1 µM. The 50% inhibitory concentration (IC50) in the series on MCF-7 is 4.5 µM.

In turn, `CN1CCN(c2ccc(N/C=C3\C(=O)NC(=O)c4ccc(Br)cc43)nn2)CC1` [Example 477, (4Z)-6-Bromo-4-({[6-(4-methylpiperazin-1-yl)pyridazin-3-yl]amino}methylene)isoquinoline-1,3(2H,4H)-dione] had a melting point of 245 to 246 °C. Besides, the concentration for half-maximal inhibition (IC50) on cyclin D1/cdk 4 enzyme worked out at 13.8 µM. Moreover, at cyclin E/CDK2 enzyme, the IC50 came to 40.6 µM. Besides, the half-maximal inhibitory concentration (IC50) on cyclin B/CDK1 enzyme was 24.2 µM. Moreover, in the series on BT474, the 50% inhibitory concentration (IC50) was 4.1 µM. The IC50 in the series on HCT-116 was 1.6 µM. Moreover, the IC50 in the series on LoVo stood at 3.9 µM. In the series on MCF-7, the half-maximal inhibitory concentration (IC50) is 2.3 µM.

With `COC[C@@H]1CCCN1Cc1ccc(N/C=C2\C(=O)NC(=O)c3ccc(I)cc32)nc1` [Example 478, (4Z)-6-Iodo-4-{[(5-{[(2S)-2-(methoxymethyl)pyrrolidin-1-yl]methyl}pyridin-2-yl)amino]methylene}isoquinoline-1,3(2H,4H)-dione], the melting point fell in the range of 185 to 186 °C. In addition, the IC50 at cyclin D1/cdk 4 enzyme was 17.6 µM. Also, the concentration for half-maximal inhibition (IC50) at cyclin E/CDK2 enzyme was more than 50 µM. The half-maximal inhibitory concentration (IC50) on cyclin B/CDK1 enzyme is more than 50 µM. Besides, in the series on BT474, the concentration for half-maximal inhibition (IC50) is more than 50 µM. The IC50 with HCT-116 was 24.2 µM. Moreover, the concentration for half-maximal inhibition (IC50) in the series with LoVo came to 46.8 µM. Besides, the IC50 with MCF-7 was 44.8 µM.

`O=C1NC(=O)c2ccc(I)cc2/C1=C/Nc1ccc(CN2CCC(CCO)CC2)cc1` [Example 480, (4Z)-4-{[(4-{[4-(2-Hydroxyethyl)piperidin-1-yl]methyl}phenyl)amino]methylene}-6-iodoisoquinoline-1,3(2H,4H)-dione] returned a melting point of 223 to 224 °C. In addition, on cyclin D1/cdk 4 enzyme, the IC50 is 0.21 µM. Besides, the half-inhibitory concentration (IC50) at cyclin E/CDK2 enzyme amounted to 26.5 µM. On cyclin B/CDK1 enzyme, the half-inhibitory concentration (IC50) was more than 50 µM. In addition, the concentration for half-maximal inhibition (IC50) in the series with BT474 turned out to be 1 µM. Moreover, the 50% inhibitory concentration (IC50) in the series on HCT-116 was determined as 3.3 µM. The IC50 with LoVo was 4.5 µM. Also, in the series with MCF-7, the 50% inhibitory concentration (IC50) amounted to 1.6 µM.

In turn, `CCN1CCN(c2ccc(N/C=C3\C(=O)NC(=O)c4ccc(-c5ccoc5)cc43)nc2)CC1` [Example 481, (4Z)-4-({[5-(4-Ethylpiperazin-1-yl)pyridin-2-yl]amino}methylene)-6-(3-furyl)isoquinoline-1,3(2H,4H)-dione] yielded a melting point of 256 to 257 °C. Also, the half-maximal inhibitory concentration (IC50) at cyclin D1/cdk 4 enzyme came to 0.19 µM. For the same compound, the IC50 on cyclin E/CDK2 enzyme was more than 50 µM. The IC50 at cyclin B/CDK1 enzyme is more than 50 µM. In addition, in the series with BT474, the IC50 came to 0.6 µM. In addition, in the series with HCT-116, the IC50 is 0.88 µM. Besides, the IC50 in the series with LoVo was determined as 0.96 µM. The IC50 with MCF-7 was 1.1 µM.
